Data set [1] has as its system HIV. To be noted: initial titer 9 log10. The procedure:
A virus stock concentrate was prepared by infecting (CEM) cells at a multiplicity of infection of approximately 1. The cultures were established in 490 cm^2 Corning roller bottles containing approximately 450 ml of RPMI 1640 medium sufficient as is supplemented with 10% fetal bovine serum, penicillin, streptomycin, and 0.002 mg/ml polybrene. […] The total volume of the cultures was 1800 ml. […] The cultures were filtered through a 1.2 uM cellulose acetate filter. Virus was pelleted from the filtrate by centrifugation at 61,000×g for 4 hours at 4° C. The pelleted virus was resuspended with PBS (phosphate buffered saline solution).
Samples A, B and C were allowed to stand for 1 hour at 4° C. and sample D was allowed to stand for 1 hour at 25° C. Each sample was then centrifuged at 105,000×g for 90 minutes. The pellets were resuspended in 1 ml PBS and assayed for HIV by direct observation of the cytopathic effects of the virus on CEM cells. The assay method used in this example inherently rounds off titer to the nearest 0.5 log increment.

Data set [2] relates to HIV. Further details: species or system Human Immunodeficiency Virus. The text has this:
The Factor IX solution obtained is further contacted with HIV virus to obtain a final titer of 8-9 log10 of virus. […]. The solution is then dialyzed to remove the chemical disinfectant and then filtered through a membrane with an effective porosity equivalent to 100 KD molecular weight cut off.

Data set [3] deals with Factor IX - deficient plasma. The experiment in a line: Factor IX activity by degree of correction in APTT time of Factor IX-deficient plasma. Format: biochemical, human. The procedure: A purified Factor IX was obtained from PROTHAR® by chromatography on a monoclonal antibody affinity matrix specific to Factor IX. It contained approximately 0.065 milligrams of protein and 8 units of Factor IX activity per milliliter of solution. The purified preparation was ultrafiltered using an Amicon XM300 membrane and pressure of 5 p.s.i. The ultrafiltration proceeded very rapidly (about 2.5 ml/min). The filtrate was subsequently re-filtered through an Amicon XM100 membrane. The Factor IX activity in the final ultrafiltrate was 67%. Losses were not the result of Factor IX inactivation since specific activity was unaltered.
The product covered by this registered trademark of Armour Pharmaceutical is a stable lyophilized concentrate of human Factors II, VII, IX and X. It is prepared from pooled human plasma. Upon reconstitution it is a concentrated protein solution containing approximately 18 milligrams of total protein and 33 units of Factor IX activity per milliliter. The specific activity of Factor IX in the product ranges from 0 8-2.0 units per milligram of total protein.
In the first run, PROTHAR® was diluted 1:1 with 0.05M Tris-HCL, pH8.0. The resultant solution was ultrafiltered through an Amicon XM100 membrane (molecular weight cut-off of 100 K Daltons) using a pressure of 15 p.s.i. The ultrafiltration proceeded very slowly (about 0.25 ml/min), and the flow rate slowed as the protein inside the stirred cell became more concentrated. Only about 1% of the Factor IX activity found in the starting material appeared in the ultrafiltrate. […] Factor IX activity, in this and all other instances, is assayed by determining the degree of correction in APTT time of Factor IX - deficient plasma. J. H. Lenahan, Phillips and Phillips, Clin. Chem., Vol. 12, page 269 (1966).
Subsequent experiments were performed using an Amicon XM300 membrane (molecular weight cut-off of 300 K Daltons), pressures of 5 p.s.i., and reconstituted PROTHAR® dilutions of 1:6 and 1:10. Only about 17-19% of the Factor IX activity was found in the ultrafiltrate.

Where two headings read alike, the source gives them in different places.

With `N#CS` [NaSCN, sodium thiocyanate], the “TOTAL LOG10 ID50 (found)” value stood at 1.0 LOG10 ID50 with HIV [1] (Sample A: final NaSCN 1.5, 1 hour, 4° C.); 1.0 LOG10 ID50 in the data set on HIV [1] (Sample B: final NaSCN 2.0, 1 hour, 4° C.); 1.0 LOG10 ID50 with HIV [1] (Sample C: final NaSCN 3.0, no buffer, 1 hour, 4° C.); 1.0 LOG10 ID50 with HIV [1] (Sample D: final NaSCN 2.0, 1 hour, 25° C.). Also, the “titer of HIV infectivity” value in the data set on HIV [2] was “undetectable levels”.

As for “Factor IX: purified Factor IX obtained from PROTHAR by chromatography on a monoclonal antibody affinity matrix specific to Factor IX”, the “HIV titer after dialysis and filtration” value with HIV [2] (100 KD cut-off membrane, after NaSCN treatment) is reported as “further reduced”. Besides, the F.IX recovered in data set [3] (Example 5, 100 KD molecular weight cut-off filtration) was 80-100%. Also, in data set [3] (Example 6, dialysis and 100 KD cut-off filtration), the “Factor IX activity recovered” value is 80-100%. Moreover, the “specific activity after ultrafiltration” value in data set [3] (affinity-purified Factor IX, XM300 then XM100 membrane) is recorded as “unaltered”. Also, the “Factor IX activity in the final ultrafiltrate” value in data set [3] (affinity-purified Factor IX, XM300 then XM100 membrane, 5 p.s.i.) was determined as 67%. Moreover, the “active Factor IX content, of the initial value” in data set [3] (after 0.1% tri(n-butyl)phosphate and 1% Tween 80) was greater than 80%. In addition, the specific activity in data set [3] (pre-purified by chromatography on a monoclonal antibody affinity matrix) is reported as ≤ 190 units/mg of protein. Moreover, the “Factor IX activity per milliliter of solution” value in data set [3] (purified Factor IX, approximately 0.065 milligrams of protein per milliliter) is reported as roughly 8 units per milliliter.

These data come from US5300433A, “Methods for the inactivation of viruses in viral-contaminated pharmaceutical compositions” (Rhone-Poulenc Rorer Pharmaceuticals Inc., priority 1991, dated 1994).
